# Test results taken from PMC4526861, “Inhibition of protein kinase C by isojacareubin suppresses hepatocellular carcinoma metastasis and induces apoptosis in vitro and in vivo” (Scientific Reports, 2015).
# Assays:
# [1] = tested on: phosphorylated c-Raf, MEK1/2 and ERK1/2; assay: Western blot of MAPK phosphorylation, HepG2; assay type: cell-based, human; details: HepG2, 24 h
# Experimental: (§1) Additional PKC targeting effects involved in the early response of major MAPK phosphorylation and the late response of HCC cell invasion and apoptosis were investigated. After 24 h of treatment with ISJ at the indicated concentrations, the total protein lysates from HCC cells were analyzed (Fig. 6). ISJ inhibited the phosphorylated, activated forms of c-Raf, MEK1/2 and ERK1/2 in the MAPK signaling pathway in both HepG2 and QGY-7703 cells (Fig. 6a). […] In contrast, E-cadherin expression was elevated, specifically at the highest concentration of ISJ (20 μM) (Fig. 6b). In addition, we analyzed several representative apoptotic proteins, including cleaved PARP (c-PARP), p53 and p21. […] These findings support our hypothesis that ISJ restrains HCC cell metastasis and induces HCC cell apoptosis by specifically inhibiting PKC.
# (§2) The total membrane and cytosolic proteins were extracted using a Membrane and Cytosol Protein Extraction Kit (Beyotime). Extracted proteins from cells or animal tissues were separated by SDS-PAGE and transferred to polyvinylidene difluoride (PVDF) membranes (Bio-Rad). The PVDF membranes were blocked with 5% nonfat milk and incubated with primary antibodies overnight, followed by incubation with a donkey anti-rabbit or anti-mouse secondary antibody (IRDye 800, LI-COR, Biosciences). […] The intensity was quantitative with Quantity One software (Bio-Rad). […]
# HepG2 cells [2] = assay: Wound healing (migration) assay; assay type: cell-based, human; details: 10 μM, 24 h
# Experimental: (§3) Cell migration and invasion potencies were studied using wound healing and Matrigel invasion assays. The wound healing assay was performed by scratching the cell surface with a 10 μL pipette tip. Then, the cells were treated with compound 7 and ISJ (10 μM) and incubated for 24 h before being photographed under a microscope (DMI3000 B, Leica). Wound closure was evaluated using ImageJ software. Invasion through a Matrigel-coated filter was measured in transwell chambers (Corning Costa) as described previously, with minor modifications. Briefly, HepG2 Cells (2 × 10^5/well) were suspended in serum-free medium and added to the upper chamber of the Matrigel plate. FBS (10%) was used as the chemoattractant in the lower chamber. After incubation for 24 h, the non-invading cells were removed from the upper surface of the insert membrane with a cotton swab. The invading cells were fixed with methanol and stained with Giemsa (Sigma). Cells in five randomly selected fields were photographed, and the numbers of cells that crossed the membrane were counted.
# HepG2 xenografts = assay: Antitumor activity in vivo, HepG2 xenograft; parameters: species or system BALB/c-nu nude mice; details: 5 mg/kg, tail vein injection every other day for two weeks
# Experimental: Four-week-old male BALB/c-nu nude mice (15–20 g) were obtained from the Shanghai SLAC Laboratory Animal Co., Ltd. (Shanghai, China). The animals were maintained under specific pathogen-free conditions with food and water supplied ad libitum in the Laboratory Animal Center of the Second Military Medical University. All animal experiments were carried out in accordance with the Guide for the Care and Use of Laboratory Animals of the National Institutes of Health and were approved by the Committee on the Ethics of Animal Experiments of the Second Military Medical University, China.
# HepG2 cells were harvested and resuspended in PBS. A total of 5 × 10^6 cells were subcutaneously injected into the right flank. Tumor volume was calculated using the following formula: V = (L × W^2)/2, where L is the length and W is the width of the tumor nodules measured with vernier calipers. Once the volume of the tumors reached 75–100 mm^3, the mice were randomly divided into three groups (n = 5). The mice were treated every other day for two weeks with tail vein injections of either vehicle (5% ethanol and 2.5% polyethylene glycol in saline), compound 7, or ISJ (5 mg/kg in the vehicle). Body weights were measured before each drug injection. After the 15th day, the mice were euthanized, and the tumors were isolated, weighed and photographed.
# [3] = tested on: MMP-9, FGFR-1, E-cadherin; assay: Western blot of invasion-related proteins, HepG2; assay type: cell-based, human; details: HepG2, 24 h
# Experimental: as §1, §2
# [4] = tested on: phosphorylated c-Raf, MEK1/2 and ERK1/2; assay: Western blot of MAPK phosphorylation, QGY-7703; assay type: cell-based, human; details: QGY-7703, 24 h
# Experimental: as §1, §2
# PKC = PKC activity assay (PepTag non-radioactive, HepG2 lysates); assay type: biochemical, human; details: 3 h
# Experimental: The activity of PKC in HepG2 cells was assessed 3 h after the addition of compound 7 or ISJ by measuring the phosphorylation of a PKC-specific target peptide. Compared to the basal control (in the absence of any compound), PKC activity was inhibited by compound 7 and ISJ.
# Figure 3 Effects of compound 7 and ISJ on PKC activity in HepG2 cells. The proteins from lysed HepG2 cells were prepared and measured for their ability to phosphorylate a PKC-specific peptide substrate (PLSRTLSVAAK) in a non-radioactive assay. (a) Lanes 1 and 2 show the negative (water only) and positive controls (with 20 ng purified PKC). Supernatants from HepG2 cells were subjected to the PKC activity assay in the absence (basal control, lane 3) or presence (lanes 4–7) of the compounds. Compound 7 (lanes 4 and 5) and ISJ (lanes 6 and 7) were added separately at 10 and 5 μM. (b) Quantification of (a); *P < 0.05 versus the basal control. Data are shown as the mean ± SD of three independent experiments.
# The PKC activity assay was carried out as previously reported, according to the instructions of the PepTag non-radioactive PKC assay kit (Promega)[60]. The bands were photographed using the Syngene GBOX-iCHEMI-XR system, and the phosphorylated bands were cut out for quantification measurement at 570 nm.
# HepG2 cells [5] = assay: Matrigel invasion assay; assay type: cell-based, human; details: 10 μM, 24 h
# Experimental: as §3
# HepG2 cells [6] = assay: Apoptosis assay, Annexin V-FITC/PI flow cytometry; assay type: cell-based, human; details: 48 h
# Experimental: To further explore the potential mechanisms of the antiproliferative effects induced by compound 7 and ISJ, Annexin V-FITC/PI double staining was performed to quantify cellular apoptosis by flow cytometry. HepG2 cells were cultured for 48 h in the absence or presence of compound 7 or ISJ at different concentrations (5 or 15 μM).
# HepG2 cells were seeded in six-well plates (5 × 10^5 cells/mL) for 24 h and then treated with various amounts of the compounds or 1% DMSO (as control). After 48 h, the cells floating in the medium were collected, and the adherent cells were detached with 0.05% trypsin, washed twice with cold PBS, and centrifuged at 1000 rpm for 5 min at 4 °C. Subsequently, HepG2 cells were gently resuspended in the binding buffer. Thereafter, the cells were stained using the Annexin V-FITC/PI apoptosis detection kit (BD Biosciences, San Jose, CA, USA). After incubation at room temperature for 15 min in the dark, the apoptotic cells were immediately analyzed by flow cytometry (FACS Calibur).
substance,measurement,setting,value
Isojacareubin [ISJ],"phosphorylated, activated forms of c-Raf, MEK1/2 and ERK1/2",[1],inhibited
same,decrease of HepG2 cell migration compared to control,HepG2 cells [2],77.8%
same,reduction of tumor weight compared to controls,HepG2 xenografts,74.1%
same,expression levels of MMP-9 and FGFR-1,[3],markedly reduced
same,E-cadherin expression,[3]; specifically at 20 μM,elevated
same,"phosphorylated, activated forms of c-Raf, MEK1/2 and ERK1/2",[4],inhibited
same,inhibition of PKC activity compared to the basal control,PKC; 5 μM,52.3%
same,inhibition of PKC activity compared to the basal control,PKC; 10 μM,77.7%
same,inhibition of invasiveness compared to control,HepG2 cells [5],76%
same,number of apoptotic cells compared to the control group,HepG2 cells [6]; 5 μM,did not alter
same,percentage of apoptotic cells,HepG2 cells [6]; 15 μM,increased significantly
